Key:
[1] = test system: high fat-fed obese mice (C57BL/6-DIO); test: Assay of an anti-diabetic effect in DIO (diet-induced obese) mice; type: in vivo; settings: oral, 30 or 100 mg/kg b.i.d. for 15 days, overnight fasting state, dose-dependently
Source text: (1) Assay of an Anti-Diabetic Effect of the Compounds in DIO (Diet-Induced Obese) Mice
Male, 12-weeks old high fat-fed obese mice (C57BL/6-DIO, Charles River Japan) were orally administered with the compounds of the present invention twice a day for 15 days. During the experiment, mice were provided high fat pellet diet (D12492, Research Diets) and tap water from bottle of feed water ad libitum. On the first day of the experiment, blood samples were collected from tail vein using a microcapillary to measure plasma glucose concentration. Based on plasma glucose concentration, mice were divided into some groups (five mice per group) and started dosing. The dosing was carried out by oral gavage, after suspending the compounds of the present invention in the previously described vehicle. The control group received only the vehicle. After 15 days from starting the dosing, plasma samples were collected from tail vein at overnight fasting state. Plasma glucose and insulin levels were measured with commercial kits (glucose, Glucose CH-Test Wako®, Wako Pure Chemical Industries, Ltd.; insulin, Rat Insulin ELISA Kit, Morinaga Institute of Biological Science Inc.).

[2] = test system: rat transient focal cerebral ischemia model; test: Assay of a neuroprotective effect in the rat transient focal cerebral ischemia model (MCA occlusion); type: in vivo, Sprague Dawley rats; settings: 120 min MCA occlusion, 100 mg/kg orally 1 hour before and 12 hours after MCA occlusion, evaluated at 24 hours after MCA occlusion
Description: (2) Assay of a Neuroprotective Effect of the Compound in the Rat Transient Focal Cerebral Ischemia Model.
Transient focal cerebral ischemia (120 min) was induced by intraluminal middle cerebral artery (hereinafter abbreviated to MCA) occlusion using the method of Koizumi et al., (in Japanese Journal of Stroke 1986; 8:1-8). Male Sprague Dawley rats (7 weeks old; Charles River Japan) were used. Under conditions of 30% oxygen and 70% air, the animals inhaled 2.5% halothane (Takeda Chemical Industries, Ltd.) through a halothane vaporizer (Shinano Works). Under the anesthesia, the left common carotid artery (hereinafter abbreviated to CCA), the external carotid artery (hereinafter abbreviated to ECA) and the internal carotid artery (hereinafter abbreviated to ICA) were isolated from surrounding connective tissue, then the CCA and the ECA were ligated with surgical thread. […] Immediately before MCA reperfusion neurological score of animals were observed using the method of Yonemori et al., (in J Cereb Blood Flow Metab 1996; 16: 973-80.) and animals that scored less than 5 were excluded due to insufficient occlusion. […]
At 24 hours after MCA occlusion, neurological score were evaluated. […] The cerebral infarct area was identified in scanned images and measured using image analysis software (Photoshop 5.5/NIH image 1.63) to determine the infarct area per slice. […]

Crl: CD(SD) rats = test: Evaluation of hepatic damage by the compounds in rats; type: in vivo; settings: 100 mg/kg orally once daily for 4 days, blood at the day after the final dosing
Description: (3) Evaluation of Hepatic Damage by the Compounds in Rats
The compounds of the present invention were administered orally to male Crl: CD(SD) rats with four animals per group once daily for 4 days at dose levels of 0 (control) and 100 mg/kg to investigate hepatotoxicity. The compounds of the present invention were dissolved in 70% Wellsolve (solubilizer, Celeste Corporation) containing 30% DMSO (dimethyl sulfoxide) and administered orally at a dose volume of 10 mL/kg. The control group was treated with the vehicle at the same dosing volume.
Blood was drawn from the abdominal vein of each animal at the day after the final dosing. The plasma was separated by centrifugation at 13,684×g for 5 min at 4° C. The plasma concentration of aspartate aminotransferase (AST) and alanine aminotransferase (ALT), biochemical markers of hepatic damage, were measured.

Row | Compound | fasted plasma glucose level [1] | fasted plasma insulin level [1] | cerebral infarct volume [2] | neurological score [2] | plasma alanine aminotransferase (ALT) level (Crl: CD(SD) rats) | plasma aspartate aminotransferase (AST) level (Crl: CD(SD) rats)
1 | CCOc1nc(C(=O)NCC2CCN(Cc3cnc(-c4ccccn4)s3)CC2)cc(N)c1C#N [Example 115, 4-amino-5-cyano-6-ethoxy-N-((1-((2-(pyridin-2-yl)thiazol-5-yl)methyl)piperidin-4-yl)methyl)picolinamide] | significantly decreased | significantly decreased | significant preventive effect | significant preventive effect | not increased | not increased
2 | CCOc1nc(C(=O)NCC2CCN(Cc3sc(-c4ccccn4)nc3CN(C)C)CC2)cc(N)c1C#N [Example 118, 4-amino-5-cyano-N-((1-((4-((dimethylamino)methyl)-2-(pyridin-2-yl)thiazol-5-yl)methyl)piperidin-4-yl)methyl)-6-ethoxypicolinamide] |  |  |  |  | not increased | not increased
